Source: patent US20090311217A1, “3-SUBSTITUTED-1H-INDOLE COMPOUNDS, THEIR USE AS MTOR KINASE AND PI3 KINASE INHIBITORS, AND THEIR SYNTHESES” (priority 2008, published 2009)

What was measured:
Format in all cases: biochemical
PI3K-gamma = PI3K-gamma (Homo sapiens, UniProt P48736); assay: PI3K-gamma fluorescence polarization assay; conditions: PI3Kγ Avg. IC50
Summary of the method: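 Inhibition is derived from a polarization signal: after a 1 h, 25° C kinase step (25 μM ATP, 2.5 μM diC8-PIP2, pH 7), EDTA stops the reaction and the GRP1 PH domain/TMR-IP4 pair reports lipid product.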

human TOR = target: T1, human TOR (Homo sapiens, UniProt P42345); assay: mTOR enzyme assay (DELFIA, His6-S6K substrate); conditions: read-out: mTOR Kinase Avg. IC50
T1 construct: FLAG

PI3K-alpha = PI3K-alpha (Homo sapiens, UniProt P42336); assay: PI3K-alpha fluorescence polarization assay; conditions: read-out: PI3Kα Avg. IC50
PI3K-alpha, sequence (P42336 whole entry, species assumed): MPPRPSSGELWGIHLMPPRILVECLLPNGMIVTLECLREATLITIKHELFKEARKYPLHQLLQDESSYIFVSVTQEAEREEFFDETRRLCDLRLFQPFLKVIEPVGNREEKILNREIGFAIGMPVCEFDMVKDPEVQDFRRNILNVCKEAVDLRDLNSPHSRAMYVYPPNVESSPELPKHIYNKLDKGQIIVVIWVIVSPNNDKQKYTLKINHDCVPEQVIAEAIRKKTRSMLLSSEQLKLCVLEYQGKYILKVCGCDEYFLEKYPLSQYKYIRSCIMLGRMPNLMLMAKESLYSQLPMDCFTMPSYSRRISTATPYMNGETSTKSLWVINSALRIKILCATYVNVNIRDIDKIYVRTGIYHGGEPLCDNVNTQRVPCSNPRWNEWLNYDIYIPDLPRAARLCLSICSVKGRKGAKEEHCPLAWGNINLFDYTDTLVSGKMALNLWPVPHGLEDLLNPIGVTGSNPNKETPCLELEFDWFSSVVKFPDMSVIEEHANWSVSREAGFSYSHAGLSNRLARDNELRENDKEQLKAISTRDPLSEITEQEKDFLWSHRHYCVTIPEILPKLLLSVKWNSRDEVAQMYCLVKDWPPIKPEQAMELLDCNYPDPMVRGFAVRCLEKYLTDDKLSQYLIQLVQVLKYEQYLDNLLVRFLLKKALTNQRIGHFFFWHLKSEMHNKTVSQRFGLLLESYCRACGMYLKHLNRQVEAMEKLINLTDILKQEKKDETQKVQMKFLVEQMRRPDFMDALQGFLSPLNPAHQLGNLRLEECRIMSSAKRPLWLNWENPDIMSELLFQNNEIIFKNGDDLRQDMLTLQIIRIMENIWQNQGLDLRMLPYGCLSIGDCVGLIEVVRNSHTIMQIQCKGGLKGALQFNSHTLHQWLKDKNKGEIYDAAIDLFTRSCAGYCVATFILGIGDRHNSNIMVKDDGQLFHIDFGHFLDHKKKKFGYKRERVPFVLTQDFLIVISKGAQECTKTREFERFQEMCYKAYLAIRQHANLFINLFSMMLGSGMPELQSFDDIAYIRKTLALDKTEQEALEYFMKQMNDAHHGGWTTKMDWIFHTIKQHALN
PI3K-alpha, sequence (P27986 whole entry partner, species assumed): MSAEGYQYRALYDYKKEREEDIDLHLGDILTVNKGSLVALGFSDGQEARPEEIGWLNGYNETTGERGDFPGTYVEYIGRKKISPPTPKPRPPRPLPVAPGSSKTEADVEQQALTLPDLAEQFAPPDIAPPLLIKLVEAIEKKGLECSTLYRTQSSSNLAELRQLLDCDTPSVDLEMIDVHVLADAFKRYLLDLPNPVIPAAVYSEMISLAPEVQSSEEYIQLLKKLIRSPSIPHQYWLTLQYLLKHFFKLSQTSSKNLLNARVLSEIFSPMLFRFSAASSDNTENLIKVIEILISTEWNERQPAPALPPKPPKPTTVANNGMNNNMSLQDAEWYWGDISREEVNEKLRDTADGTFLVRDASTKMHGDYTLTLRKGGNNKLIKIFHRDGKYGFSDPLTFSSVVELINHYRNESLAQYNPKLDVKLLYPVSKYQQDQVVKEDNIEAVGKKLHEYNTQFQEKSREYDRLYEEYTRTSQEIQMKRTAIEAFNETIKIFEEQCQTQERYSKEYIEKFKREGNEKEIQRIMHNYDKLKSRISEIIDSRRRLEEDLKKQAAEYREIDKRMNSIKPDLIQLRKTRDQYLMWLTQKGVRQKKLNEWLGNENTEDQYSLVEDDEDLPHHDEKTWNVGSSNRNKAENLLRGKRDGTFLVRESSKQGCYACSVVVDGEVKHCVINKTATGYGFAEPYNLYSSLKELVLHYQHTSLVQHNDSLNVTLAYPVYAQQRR

PI3K-gamma, sequence (P48736 whole entry, species assumed, the tested form may be a part): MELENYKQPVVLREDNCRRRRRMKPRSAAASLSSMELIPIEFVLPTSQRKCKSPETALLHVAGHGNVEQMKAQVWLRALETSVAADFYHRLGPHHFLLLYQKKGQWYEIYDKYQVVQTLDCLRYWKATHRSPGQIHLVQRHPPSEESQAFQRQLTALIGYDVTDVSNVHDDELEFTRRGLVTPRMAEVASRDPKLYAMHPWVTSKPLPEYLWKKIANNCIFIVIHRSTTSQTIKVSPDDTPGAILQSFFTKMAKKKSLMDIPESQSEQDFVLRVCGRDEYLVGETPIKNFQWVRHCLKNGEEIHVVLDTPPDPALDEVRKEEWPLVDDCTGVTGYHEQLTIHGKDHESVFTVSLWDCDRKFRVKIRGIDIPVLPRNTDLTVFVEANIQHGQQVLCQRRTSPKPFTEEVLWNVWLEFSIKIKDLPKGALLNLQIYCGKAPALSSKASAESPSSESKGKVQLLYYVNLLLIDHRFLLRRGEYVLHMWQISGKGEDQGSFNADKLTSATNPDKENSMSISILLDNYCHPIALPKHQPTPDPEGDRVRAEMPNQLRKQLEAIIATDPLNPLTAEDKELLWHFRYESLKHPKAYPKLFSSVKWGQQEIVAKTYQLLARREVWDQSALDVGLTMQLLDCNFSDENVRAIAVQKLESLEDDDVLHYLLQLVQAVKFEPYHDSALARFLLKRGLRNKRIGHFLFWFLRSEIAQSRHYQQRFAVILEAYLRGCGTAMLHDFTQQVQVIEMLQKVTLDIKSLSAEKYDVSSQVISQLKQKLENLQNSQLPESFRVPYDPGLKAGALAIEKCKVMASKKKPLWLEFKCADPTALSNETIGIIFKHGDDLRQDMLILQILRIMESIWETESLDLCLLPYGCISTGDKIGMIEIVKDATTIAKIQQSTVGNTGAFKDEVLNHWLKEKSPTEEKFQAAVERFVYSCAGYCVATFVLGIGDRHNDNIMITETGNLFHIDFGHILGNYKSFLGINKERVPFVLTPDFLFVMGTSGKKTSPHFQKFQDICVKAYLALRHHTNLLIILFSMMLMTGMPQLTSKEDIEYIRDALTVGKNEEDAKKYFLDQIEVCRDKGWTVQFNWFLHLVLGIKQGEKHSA

SMILES	IC50 (PI3K-gamma) [nM]	IC50 (human TOR) [nM]	IC50 (PI3K-alpha) [nM]
CN1CCN(CCn2c(-c3ccccc3)c(C=C3Oc4cc(O)cc(O)c4C3=O)c3ccccc32)CC1 [Example 159, 4,6-dihydroxy-2-({1-[2-(4-methylpiperazin-1-yl)ethyl]-2-phenyl-1H-indol-3-yl}methylene)-1-benzofuran-3(2H)-one]	5120	1800	2860
O=C1C(=Cc2c(-c3cccc(F)c3)[nH]c3ccccc23)Oc2cc(O)cc(O)c21 [Example 210, 2-{[2-(3-fluorophenyl)-1H-indol-3-yl]methylene}-4,6-dihydroxy-1-benzofuran-3(2H)-one]	1480	190	674
COc1ccc2c(c1)c(/C=C1\Oc3ccc(NC(=O)Nc4ccc(NCCN(C)C)cc4)cc3C1=O)c(C)n2CCN1CCN(C)CC1 [Compound 684, 1-(4-{[2-(dimethylamino)ethyl]amino}phenyl)-3-[(2Z)-2-({5-methoxy-2-methyl-1-[2-(4-methylpiperazin-1-yl)ethyl]-1H-indol-3-yl}methylidene)-3-oxo-2,3-dihydro-1-benzofuran-5-yl]urea]	1720	19	7
O=C1C(=Cc2c[nH]c3cccc(-c4ccccc4)c23)Oc2cc(O)cc(O)c21 [Example 269, 4,6-dihydroxy-2-[(4-phenyl-1H-indol-3-yl)methylene]-1-benzofuran-3(2H)-one]	2210	1060	1640
Cn1cc(/C=C2\Oc3cc(O)cc(O)c3C2=O)c2c(-c3ccncc3)cccc21 [Example 373, (2Z)-4,6-Dihydroxy-2-[(1-methyl-4-pyridin-4-yl-1H-indol-3-yl)methylene]-1-benzofuran-3(2H)-one]	> 10000	300	4770

The next compounds have a lower IC50 (PI3K-gamma) than those just listed; values first:

IC50 (PI3K-gamma) [nM]	IC50 (human TOR) [nM]	IC50 (PI3K-alpha) [nM]	SMILES
178	23	39.8	COc1ccc2c(c1)c(/C=C1\Oc3cc(O)cc(O)c3C1=O)c(C)n2CC(=O)N(C)C [Example 322, 2-{3-[(Z)-(4,6-Dihydroxy-3-oxo-1-benzofuran-2(3H)-ylidene)methyl]-5-methoxy-2-methyl-1H-indol-1-yl}-N,N-dimethylacetamide]
3.65	23	0.8	COc1cc(F)c2[nH]c(-c3c(C)nn(C)c3C)c(/C=C3\Oc4ccc(NC(=O)NCCN(C)C)cc4C3=O)c2c1 [Compound 716, 1-[2-(dimethylamino)ethyl]-3-[(2Z)-2-{[7-fluoro-5-methoxy-2-(1,3,5-trimethyl-1H-pyrazol-4-yl)-1H-indol-3-yl]methylidene}-3-oxo-2,3-dihydro-1-benzofuran-5-yl]urea]
3	2	0.4	COc1ccc2[nH]c(-c3c(C)nn(C)c3C)c(/C=C3\Oc4ccc(NC(=O)Nc5ccc(C(=O)N6CCN(C(C)C)CC6)cc5)cc4C3=O)c2c1 [Compound 700, 1-[(2Z)-2-{[5-methoxy-2-(1,3,5-trimethyl-1H-pyrazol-4-yl)-1H-indol-3-yl]methylidene}-3-oxo-2,3-dihydro-1-benzofuran-5-yl]-3-(4-{[4-(1-methylethyl)piperazin-1-yl]carbonyl}phenyl)urea]
21	125	4	CCn1c(C)c(/C=C2\Oc3ccc(NC(=O)Nc4ccc(N(C)CCCN(C)C)cc4)cc3C2=O)c2cc(OC)ccc21 [Compound 653, 1-(4-{[3-(dimethylamino)propyl](methyl)amino}phenyl)-3-{(2Z)-2-[(1-ethyl-5-methoxy-2-methyl-1H-indol-3-yl)methylene]-3-oxo-2,3-dihydro-1-benzofuran-5-yl}urea]
298	84	281	COc1ccc2c(c1)c(/C=C1\Oc3cc(O)cc(O)c3C1=O)c(C(=O)N(C)C)n2CC(=O)N(C)C [Example 325, 3-[(Z)-(4,6-Dihydroxy-3-oxo-1-benzofuran-2(3H)-ylidene)methyl]-1-[2-(dimethylamino)-2-oxoethyl]-5-methoxy-N,N-dimethyl-1H-indole-2-carboxamide]
